Peptide text beside a SMILES is read from it.
Compound | logP
CC[C@H](C)[C@H](NC(C)=O)C(=O)N[C@@H](C)C(=O)N[C@H](C(N)=O)C(C)C | -0.21
COP(=S)(OC)Oc1ccc(Cl)cc1C#N | 3.41
CCOc1cccc(NC(C)=O)c1 | 1.82
CF | 0.51
Nc1ccc(C(=O)O)c(Br)c1 | 1.49
CCN(CC)CC | 1.45
COc1ccc2c(c1)N(C[C@H](C)CN(C)C)c1ccccc1S2 | 4.68
Cc1cccc(C=C(C(N)=O)C(N)=O)c1 | 0.4
Cc1cc(N)ccc1Br | 2.53
NC(CO)C(=O)O (stereo not given) | -3.07
NNC(=O)c1ccccc1[N+](=O)[O-] | -0.54
O=C(O)c1cc([N+](=O)[O-])c(Cl)c([N+](=O)[O-])c1 | 2.5
CCCNC(=O)c1cccnc1 | 0.66
N#Cc1ccc([N+](=O)[O-])cc1 | 1.19
NC(Cc1c[nH]c2cc(F)ccc12)C(=O)O (stereo not given) | -0.78
C[Si](C)(C)c1ccccc1 | 4.72
CCCCSC1=CC(=O)c2ccccc2C1=O | 3.29
N#CCc1ccc(Cl)cc1 | 2.47
Cc1ccc2cccnc2c1 | 2.47
O=S1(=O)NC(C(F)(F)F)=Nc2cc(Cl)ccc21 | 1.65
CCOc1ccccc1OCC | 2.42
Clc1ccc(-c2cccc(Cl)c2Cl)cc1 | 5.42

Compound | logP
CCC1(C2=CC3CCC(C2)C3)C(=O)NC(=O)NC1=O (stereo not given) | 2.53
CC=CC=CC (mixture of isomers) | 2.8
O=NN1CCN(N=O)CC1 | -0.85
COP(=S)(Oc1cc(Cl)c(Br)cc1Cl)c1ccccc1 (stereo not given) | 6.31
Cc1ccc(S(I)=C(N(C)C)N(C)C)cc1 (stereo not given) | -0.1
CC1C(c2ccccc2)OCCN1N=O (stereo not given) | 2.09
CN(C)c1cccc2ccccc12 | 3.46
O=C(NCc1ccc(O)cc1)c1ccccc1 | 1.87
CC(C)(C)c1cccc(C(C)(C)C)n1 | 4.14
c1ccc(-n2cccc2)cc1 | 3.08
COCc1ccccc1 | 1.92
Cc1nccnc1CC(C)C | 1.96
O=[N+]([O-])c1ccc(OC2OC(CO)C(O)C(O)C2O)cc1 (stereo not given) | -0.44
OCC(Cl)(Cl)Cl | 1.42
Cc1[nH]ccc(=O)c1O | -0.49
CC(=O)C(=Cc1ccc(C)cc1)C(C)=O | 2.14
O=Cc1ccsc1 | 1.01
Nc1ccc2nccnc2c1 | 0.9
C=CC=O | -0.01
Cn1c(=O)cnc2ccccc21 | 0.79
COc1ccccc1[N+](=O)[O-] | 1.73
O=C(O)CCS | 0.43

Compound | logP
CN(C)CCOC(=O)c1ccccc1 | 2.06
CC(=O)OC1(C(=O)CO)CCC2C3CCC4=CC(=O)C=CC4(C)C3C(=O)CC21C (stereo not given) | 2.43
NS(=O)(=O)c1nc2ccc(Cl)cc2s1 | 2.1
CCC(=O)O | 0.33
C1CCc2nnnn2CC1 | 0.14
C1OC1CN1CCN(CC2CO2)CC1 (stereo not given) | -0.84
CCC(Br)C(=O)O (stereo not given) | 1.42
C[C@]12CC[C@H]3[C@@H](CCC4=CC(=O)CC[C@@H]43)[C@@H]1CC[C@@H]2O | 2.62
COC(=O)CCCC(=O)OC | 0.62
CC(=NO)c1cccs1 | 1.81
NC(=O)CCCCOC(=O)c1ccccc1 | 1.39
O=C1C=CC(=O)C=C1 | 0.2
O=C(NP(=O)(N1CC1)N1CC1)c1ccc(Br)cc1 | 1.63
O=C(CCCN1CCN(c2ccccn2)CC1)c1ccc(F)cc1 | 3.3
CCc1cc(NC(C)=O)cc(CC)c1O | 1.87
CCCOC(=O)c1ccc(S(N)(=O)=O)cc1 | 1.75
CC12CCC(=O)C=C1CCC1C2C(O)CC2(C)C1CCC2(O)C(=O)COC(=O)CCCCCC(=O)O (stereo not given) | 3.26
CCOc1cccc(C(=O)NP(=O)(N2CC2)N2CC2)c1 | 1.24
CC(=O)N[C@@H](CC(C)C)C(=O)N[C@@H](CO)C(=O)N[C@@H](Cc1ccccc1)C(N)=O (Ac-Leu-Ser-Phe-NH2) | 0.23
C=CC1(C)OC(=O)N(c2cc(Cl)cc(Cl)c2)C1=O (stereo not given) | 3.1
CN(C)C=C[N+](=O)[O-] | -0.8

From the OPERA property sets (Mansouri et al. 2018)
